Measured values taken from patent US20230113609A1, “SSTR5 ANTAGONISTS” (Kallyope, Inc., priority 2019, published 2023).

What follows are compounds tested against T1, human SSTR5 (Homo sapiens, UniProt P35346) (assay: Inositol phosphate accumulation assay (IP1 HTRF, antagonist mode)). Conditions: CHO-K1 cells co-expressing human SSTR5 with Gqi5, SST28 agonist at concentration generating 90% of full activation.
T1 construct: expressed in transfected cells
Format: cell-based
Description: CHO-K1 cells stably co-expressing human SSTR5 with Gqi5 were developed using Jump-In technology from Thermo-Fisher. Gqi5 is the mouse G alpha q protein, that was modified to interact with Gi-coupled GPCRs as described previously (Coward, P.; Chan, S. D.; Wada, H. G.; Humphries, G. M.; Conklin, B. R. Chimeric G proteins Allow a High-Throughput Signaling Assay of Gi-Coupled Receptors. Anal Biochem. 1999, 270(2),242-248).
Co-expression of Gqi5 with SSTR5 allowed monitoring of SSTR5 activity by following IP1 accumulation. The assay was performed in a 384-well plate format using the IP1 assay kit from Cis-Bio in an antagonist mode, i.e., pre-incubation with antagonist following by receptor activation by agonist at a concentration generating 90% of full activation. Frozen cells expressing human SSTR5 were thawed, washed, and then plated in DMEM supplemented with 10% FBS and non-essential amino acids. 40 μL of 2.5×10^5 cells/mL were plated on a Poly D-Lysine coated 384-well white plate. The cells were then incubated for 16 hr. at 37° C/5% CO2. After 16 hour the medium was removed, and 10 μL of stimulation buffer was added to the cells. Test compounds were dissolved in DMSO at concentrations 2000-fold that of the final assay concentrations. 7.5 nLcompound solutions were transferred to the cell plates using a Labcyte Echo® acoustic liquid handler. The plates were then incubated for 15 minutes at 37° C/5%CO2. After the first incubation, 5 μL of 30 nM SST28 were added to the cells, and the cells were incubated for 90 minutes at 37° C/5%CO2. 5 μL of detection buffer (prepared as described in the IP-1 kit) was added to each well, and the plates were incubated at RT for 1 hour.
TR-FRET was measured using a ClarioSTAR plate reader, calculating the ratio between emissions at 665 nm and 620 nm (HTRF ratio). The HTRF ratio for positive (Max) and negative (Min) controls were used to normalize HTRF data and generate values for % inhibition. IC50 and maximal inhibition values were determined using a standard 4-parameter fit.

T1 sequence (P35346 whole entry): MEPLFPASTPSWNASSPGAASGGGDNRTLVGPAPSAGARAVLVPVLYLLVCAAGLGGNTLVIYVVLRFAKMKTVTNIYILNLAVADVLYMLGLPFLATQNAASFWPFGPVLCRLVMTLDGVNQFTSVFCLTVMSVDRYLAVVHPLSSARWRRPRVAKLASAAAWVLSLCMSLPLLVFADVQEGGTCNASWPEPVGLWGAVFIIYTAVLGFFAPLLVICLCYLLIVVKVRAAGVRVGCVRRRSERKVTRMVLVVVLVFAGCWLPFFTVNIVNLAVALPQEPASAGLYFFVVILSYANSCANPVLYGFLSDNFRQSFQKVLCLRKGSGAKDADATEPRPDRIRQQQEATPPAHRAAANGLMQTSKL

Row | SMILES | IC50
1 | CCOc1cc(C(=O)OC)c(C2CC2)cc1CN1CCC2(CC1)CC(=O)N(c1ccc(C(=O)NCCOCCOCCO)cc1)C2 [Example 49, methyl 2-cyclopropyl-5-ethoxy-4-((2-(4-((2-(2-(2-hydroxyethoxy)ethoxy)ethyl)carbamoyl)phenyl)-3-oxo-2,8-diazaspiro[4.5]decan-8-yl)methyl)benzoate] | 100 to 1000 nM
2 | CCOc1cc(-c2ccc(F)cn2)c(C2CC2)cc1CN1CCC2(CC1)CN(c1ccc(C(=O)NCCOCCO)cc1)C(=O)N2 [Example 74, 4-(8-(5-cyclopropyl-2-ethoxy-4-(5-fluoropyridin-2-yl)benzyl)-2-oxo-1,3,8-triazaspiro[4.5]decan-3-yl)-N-(2-(2-hydroxyethoxy)ethyl)benzamide] | ≤ 100 nM
3 | CCOc1cc(C(=O)OC)c(C2CC2)cc1CN1CCC2(CC1)CC(=O)N(c1ccc(C(=O)NC[C@H](O)[C@@H](O)[C@H](O)[C@H](O)CO)cc1)C2 [Example 37, methyl 2-cyclopropyl-5-ethoxy-4-((3-oxo-2-(4-(((2S,3R,4R,5R)-2,3,4,5,6-pentahydroxyhexyl)carbamoyl)phenyl)-2,8-diazaspiro[4.5]decan-8-yl)methyl)benzoate] | 1000 to 5000 nM
4 | CCOc1cc(CN2CCC3(CC2)CN(c2ccc(C(=O)NC[C@H](O)[C@@H](O)[C@H](O)[C@H](O)COC(=O)CCC(=O)O)cc2)C(=O)O3)cc(OCC)c1-c1ccc(F)cc1 [Example 2, 4-(((2R,3R,4R,5S)-6-(4-(8-((2,6-diethoxy-4′-fluoro-[1,1′-biphenyl]-4-yl)methyl)-2-oxo-1-oxa-3,8-diazaspiro[4.5]decan-3-yl)benzamido)-2,3,4,5-tetrahydroxyhexyl)oxy)-4-oxobutanoic acid] | 100 to 1000 nM
5 | CCOc1cc(C#N)c(C2CC2)cc1CN1CCN(C(=O)Oc2ccc(C(=O)NCCCC(=O)NCCO)cc2)CC1 [compound 95, [4-[[4-(2-hydroxyethylamino)-4-oxo-butyl]carbamoyl]phenyl]4-[(4-cyano-5-cyclopropyl-2-ethoxy-phenyl)methyl]piperazine-1-carboxylate] | > 5000 nM
6 | CCOc1cc(-c2ccc(F)cc2)c(C2CC2)cc1CN1CCC2(CC1)CN(c1ccc(C(=O)NCCCS(=O)(=O)O)cc1)C(=O)O2 [Example 63, 3-(4-(8-((2-cyclopropyl-5-ethoxy-4′-fluoro-[1,1′-biphenyl]-4-yl)methyl)-2-oxo-1-oxa-3,8-diazaspiro[4.5]decan-3-yl)benzamido)propane-1-sulfonic acid] | ≤ 100 nM
7 | CCOc1cc(CN2CCC3(CC2)CN(c2ccc(C(=O)NCCCS(=O)(=O)O)cc2)C(=O)O3)cc(OCC)c1-c1ccc(F)cc1 [Example 11, 3-(4-(8-((2,6-diethoxy-4′-fluoro-[1,1′-biphenyl]-4-yl)methyl)-2-oxo-1-oxa-3,8-diazaspiro[4.5]decan-3-yl)benzamido)propane-1-sulfonic acid] | ≤ 100 nM
8 | CCOc1cc(-c2ccc(F)cc2)c(C2CC2)cc1CN1CCC2(CC1)CN(C13CC(C(=O)NCCOCCO)(C1)C3)C(=O)O2 [compound 92, 3-(8-((2-cyclopropyl-5-ethoxy-4′-fluoro-[1,1′-biphenyl]-4-yl)methyl)-2-oxo-1-oxa-3,8-diazaspiro [4.5]decan-3-yl)-N-(2-(2-hydroxyethoxy)ethyl)bicyclo [1.1.1] pentane-1-carboxamide] | ≤ 100 nM
9 | CCOc1cc(-c2ccc(F)cc2)c(C2CC2)cc1CN1CCC2(CC1)CN(c1ccc(C(=O)NCCS(=O)(=O)O)cc1)C(=O)N2 [Example 71, 2-(4-(8-((2-cyclopropyl-5-ethoxy-4′-fluoro-[1,1′-biphenyl]-4-yl)methyl)-2-oxo-1,3,8-triazaspiro[4.5]decan-3-yl)benzamido)ethane-1-sulfonic acid] | ≤ 100 nM
10 | CCOc1cc(C(=O)OC)c(C2CC2)cc1CN1CCC2(CC1)CC(=O)N(c1ccc(C(=O)NC(CO)(CO)CO)cc1)C2 [Example 21, methyl 2-cyclopropyl-4-((2-(4-((1,3-dihydroxy-2-(hydroxymethyl)propan-2-yl)carbamoyl)phenyl)-3-oxo-2,8-diazaspiro[4.5]decan-8-yl)methyl)-5-ethoxybenzoate] | > 5000 nM
11 | CCOc1cc(-c2ccc(F)cn2)c(C2CC2)cc1CN1CCC2(CC1)CN(c1ccc(S(=O)(=O)NCCOCCO)cc1)C(=O)O2 [Example 82, 4-(8-(5-cyclopropyl-2-ethoxy-4-(5-fluoropyridin-2-yl)benzyl)-2-oxo-1-oxa-3,8-diazaspiro[4.5]decan-3-yl)-N-(2-(2-hydroxyethoxy)ethyl)benzenesulfonamide] | ≤ 100 nM
12 | CCOc1cc(C(=O)OC)c(C2CC2)cc1CN1CCC2(CC1)CC(=O)N(c1ccc(C(=O)NCCCC(=O)NCCO)cc1)C2 [Example 15, methyl 2-cyclopropyl-5-ethoxy-4-((2-(4-((4-((2-hydroxyethyl)amino)-4-oxobutyl)carbamoyl)phenyl)-3-oxo-2,8-diazaspiro[4.5]decan-8-yl)methyl)benzoate] | 1000 to 5000 nM
13 | CCOc1cc(-c2ccc(F)cc2)c(C2CC2)cc1CN1CCC2(CC1)CN(c1ccc(C(=O)NCCCNC(N)=O)cc1)C(=O)O2 [Example 62, 4-(8-((2-cyclopropyl-5-ethoxy-4′-fluoro-[1,1′-biphenyl]-4-yl)methyl)-2-oxo-1-oxa-3,8-diazaspiro[4.5]decan-3-yl)-N-(3-ureidopropyl)benzamide] | ≤ 100 nM
14 | CCOc1cc(-c2ccc(F)cn2)c(C2CC2)cc1CN1CCC2(CC1)CN([C@H]1CC[C@@](C)(C(=O)NCCCS(=O)(=O)O)CC1)C(=O)O2 [compound 88] | 100 to 1000 nM
15 | CCOc1cc(C(=O)OC)c(C2CC2)cc1CN1CCC2(CC1)CN(c1ccc(C(=O)NCCCNC(N)=O)cc1)C(=O)N2 [Example 77, methyl 2-cyclopropyl-5-ethoxy-4-((2-oxo-3-(4-((3-ureidopropyl)carbamoyl)phenyl)-1,3,8-triazaspiro[4.5]decan-8-yl)methyl)benzoate] | > 5000 nM
16 | CCOc1cc(CN2CCC3(CC2)CN(c2ccc(C(=O)NCCCC(=O)NC(CO)(CO)CO)cc2)C(=O)O3)cc(OCC)c1-c1ccc(F)cc1 [Example 5] | 100 to 1000 nM
17 | CCOc1cc(C(=O)OC)c(C2CC2)cc1CN1CCC2(CC1)CC(=O)N(c1ccc(C(=O)NC(CO)CO)cc1)C2 [Example 19, methyl 2-cyclopropyl-4-((2-(4-((1,3-dihydroxypropan-2-yl)carbamoyl)phenyl)-3-oxo-2.8-diazaspiro[4.5]decan-8-yl)methyl)-5-ethoxybenzoate] | 100 to 1000 nM
18 | CCOc1cc(-c2ccc(F)cc2)c(C2CC2)cc1CN1CCC2(CC1)CN(c1ccc(S(=O)(=O)NCCOCCOCCO)cc1)C(=O)O2 [Example 83, 4-(8-((2-cyclopropyl-5-ethoxy-4′-fluoro-[1,1′-biphenyl]-4-yl)methyl)-2-oxo-1-oxa-3,8-diazaspiro[4.5]decan-3-yl)-N-(2-(2-(2-hydroxyethoxy)ethoxy)ethyl)benzenesulfonamide] | ≤ 100 nM
19 | CCOc1cc(C(=O)OC)c(C2CC2)cc1CN1CCC2(CC1)CN(c1ccc(C(=O)NCCCS(N)(=O)=O)cc1)C(=O)O2 [Example 59, methyl 2-cyclopropyl-5-ethoxy-4-((2-oxo-3-(4-((3-sulfamoylpropyl)carbamoyl)phenyl)-1-oxa-3,8-diazaspiro[4.5]decan-8-yl)methyl)benzoate] | ≤ 100 nM
20 | CCOc1cc(C(=O)OC)c(C2CC2)cc1CN1CCN(C(=O)Cc2ccc(C(=O)NC[C@H](O)[C@@H](O)[C@H](O)[C@H](O)CO)cc2)CC1 [Example 97, methyl 2-cyclopropyl-5-ethoxy-4-((4-(2-(4-(((2S,3R,4R,5R)-2,3,4,5,6-pentahydroxyhexyl)carbamoyl)phenyl)acetyl)piperazin-1-yl)methyl)benzoate] | > 5000 nM
21 | CCOc1cc(C(=O)OC)c(C2CC2)cc1CN1CCC2(CC1)CC(=O)N(c1ccc(C(=O)NCCCS(N)(=O)=O)cc1)C2 [Example 44, methyl 2-cyclopropyl-5-ethoxy-4-((3-oxo-2-(4-((3-sulfamoylpropyl)carbamoyl)phenyl)-2,8-diazaspiro[4.5]decan-8-yl)methyl)benzoate] | 100 to 1000 nM
22 | CCOc1cc(C(=O)OC)c(C2CC2)cc1CN1CCC2(CC1)CN(c1ccc(C(=O)NCCOCCO)cc1)C(=O)N2 [Example 76, methyl 2-cyclopropyl-5-ethoxy-4-((3-(4-((2-(2-hydroxyethoxy)ethyl)carbamoyl)phenyl)-2-oxo-1,3,8-triazaspiro[4.5]decan-8-yl)methyl)benzoate] | 100 to 1000 nM
23 | CCOc1cc(-c2nc(C)no2)c(C2CC2)cc1CN1CCC2(CC1)CN(c1ccc(C(=O)NCCOCCO)cc1)C(=O)N2 [Example 67, 4-(8-(5-cyclopropyl-2-ethoxy-4-(3-methyl-1,2,4-oxadiazol-5-yl)benzyl)-2-oxo-1,3,8-triazaspiro[4.5]decan-3-yl)-N-(2-(2-hydroxyethoxy)ethyl)benzamide] | 100 to 1000 nM
